Entries after “also recorded” stand apart in the source; their conditions may differ.
Columns and labels:
rat [1] = assay: Single oral dose toxicology study in rat; type: in vivo
Protocol: (§1) Nonclinical toxicology studies have been performed with compound A in the rat and cynomolgus monkey. Adverse effects were not observed after single oral doses of up to 500 mg/kg in rat and up to 2000 mg/kg in cynomolgus monkey.

cynomolgus monkey [2] = assay: Single oral dose toxicology study in cynomolgus monkey; type: in vivo
Protocol: as §1

[3] = 14-day Q3D oral toxicology study in rats; type: in vivo, rat; conditions: rat, in vivo
Protocol: (§2) In rats administered 160, 500, or 1000 mg/kg PO every 3 days (Q3D) for 14 days (5 doses total), the no-observed-adverse-effect level (NOAEL) was 160 mg/kg.
(§3) Factors Influencing Starting and Stopping Dose for compound A: The proposed starting dose of compound A (150 mg) was based on considering the NOAEL dose of compound A in the most sensitive species (160 mg/kg dosed Q3D for 14 days in rat), determining the human equivalent dose (HED) based on the body surface area difference between the two species (˜26 mg/kg, or ˜1560 mg for a 60 kg human), followed by applying a safety factor of 10 to yield the maximum recommended starting dose (MRSD). Based on the above considerations, the starting dose of compound A in the present study was 150 mg. Based on an integrated assessment of nonclinical findings with compound A, the planned maximum dose for compound A in the first-time-in-humans (FTIH) study was 2400 mg. Extrapolated on the basis of body surface area, the 2400 mg dose is equivalent to 247 mg/kg in rats and 123 mg/kg in monkeys. […] At 160 mg/kg in monkeys, the only effect was a slight decrease in heart rate (approximately 18%, or approximately 30 beats per minute, compared with vehicle).
(§4) In addition, the present clinical study included frequent clinical laboratory tests.

rat [4] = assay: 14-day Q3D oral toxicology study in rats; type: in vivo
Protocol: as §2, §3, §4

cynomolgus monkey [5] = assay: Cardiovascular study in cynomolgus monkeys; type: in vivo
[6] = tested on: N-methyl-D-aspartate (NMDA) receptor; assay: Nonclinical NMDA receptor modulation / antagonist activity; conditions: nonclinical studies
Text: Compound A [(S)-2-amino-5,5-difluoro-4,4-dimethylpentanoic acid] is a novel, orally bioavailable, specific, small molecule that activates mTORC1 pathway signaling in the brain, including those centers responsible for mood.
NMDA antagonists, in particular ketamine, are associated with mental status changes that have similarity to psychotic or dissociative symptoms seen in psychiatric disorders.

[7] = Example 1 Part A: single ascending dose plasma pharmacokinetics; type: in vivo, human
Protocol: The in-house period was 6 days/5 nights.
Frequent PK sampling was included in the study to evaluate single-dose PK. Part B of the study included assessments designed to assess preliminary efficacy.
Single ascending doses of compound A were assessed in healthy adult males and females in Part A of a two-part, randomized, double-blind, placebo-controlled, first-in-humans Study (see Example 1, Part A).

subjects with TRD = assay: Example 1 Part B: safety and tolerability of a single dose in subjects with TRD; conditions: single oral 2400 mg
Text: In Part B of the study, approximately 32 subjects were randomly assigned to double-blind treatment in one cohort. […] The single-blind placebo lead-in treatment was intended to facilitate screening out placebo responders.
(§5) The study included standard safety and tolerability assessments—e.g., physical, neurological, and psychiatric examinations, vital signs, oral temperature, respiration rate, weight, 12-lead paper electrocardiograms (pECGs), dECGs, clinical laboratory tests, monitoring of adverse events (AEs) and concomitant medications, and, in Part A of the study, cardiovascular (CV) telemetry and safety EEGs.
Placebo was administered orally as a solution.

healthy volunteers = assay: Example 1 Part A: safety and tolerability of single ascending doses in healthy volunteers
Text: Up to approximately 48 healthy volunteers were randomly assigned to double-blind treatment. […] The in-house period was 6 days/5 nights. The duration of each subject's participation was up to 39 days, including screen/washout and follow-up.
as §5
Subjects were required to abstain from eating or drinking for two hours prior to and after dosing. • Subjects randomized to receive placebo (purified water and Flavor Sweet-SF™): Single dose placebo was administered orally as a solution on Day 1. Subjects were required to abstain from eating or drinking for two hours prior to and after dosing.
An AE is any unfavorable and unintended sign (including an abnormal laboratory finding), symptom, or disease temporally associated with the use of a medical treatment or procedure, whether or not considered related to the medical treatment or procedure. […] An AE term is a unique representation of a specific event used for medical documentation and scientific analyses.
A TEAE is an AE that either commenced following initiation of study treatment or was present prior to study treatment but increased in frequency or severity following initiation of study treatment.

## CC(C)(C[C@H](N)C(=O)O)C(F)F [Compound A, (S)-2-amino-5,5-difluoro-4,4-dimethylpentanoic acid]
Rat [1]; in vivo, po, 2000 mg/kg
  finding after single oral dose: ataxia was noted
  time by which ataxia resolved: ≤ 24 h
Rat [1]; single oral dose
  single oral dose up to which adverse effects were not observed: up to 500 mg/kg
Cynomolgus monkey [2]
  single oral dose up to which adverse effects were not observed: up to 2000 mg/kg
[3]; oral, 160 mg/kg, based on body surface area difference, read-out: human equivalent dose (HED) of rat NOAEL
  human equivalent dose of rat NOAEL at 14 days: ~26 mg/kg
[3]; rats, 160, 500 or 1000 mg/kg PO Q3D for 14 days (5 doses), read-out: no-observed-adverse-effect level (NOAEL)
  NOAEL at 14 days: 160 mg/kg
Rat [4]; based on body surface area difference, 60 kg human
  human equivalent dose (HED) of rat NOAEL for a 60 kg human: ~1560 mg
Rat [4]; rat, in vivo, po
  other findings, not considered adverse: slightly decreased lymphocyte, monocyte, and neutrophil counts
Rat [4]; rat, in vivo, po, 500 mg/kg
  findings at high doses: lymphoid atrophy and decreased leucocyte counts
Rat [4]; rat, in vivo, po, 1000 mg/kg
  adverse effects at 1000 mg/kg: regenerative anemia in one male, considered likely an episode of gastrointestinal (GI) bleeding, and hepatocellular injury in one male
Cynomolgus monkey [5]; single oral dose ≥160 mg/kg
  cardiovascular findings at ≥160 mg/kg: decreased heart rate and body temperature
Cynomolgus monkey [5]; single oral dose ≥500 mg/kg
  cardiovascular finding at higher dosage levels: Increased blood pressure
[6]
  NMDA receptor modulation / antagonist activity: not associated with N-methyl-D-aspartate (NMDA) receptor modulation; also recorded: did not demonstrate NMDA antagonist activity
[7]; 150 mg to 2400 mg
  CL/F and Vz/F estimates versus dose: increased with dose
  dose proportionality of Cmax and AUC∞: slightly less than dose-proportional
[7]; both sexes, human, healthy volunteers, single oral 150-2400 mg, range among cohorts, post dose, read-out: Median Tmax
  Tmax: 0.5 to 1.5 h
[7]; both sexes, human, healthy volunteers, single oral 150-2400 mg, range among cohorts, read-out: terminal elimination half-life
  half-life: 12.7 to 15.9 h
Subjects with TRD
  Vitals, labs, and ECG findings: unremarkable
  safety and tolerability: well tolerated, with no serious adverse events, and no discontinuations due to adverse events
  severity of adverse events: mild-moderate
Subjects with TRD; n = 16
  Deaths: 0
  Discontinuations due to AE: 0
  Serious AEs: 0
  Subjects with at least 1 AE: 11 (68.8)
  TEAE: Back pain: 1
  TEAE: Dizziness: 2
  TEAE: Dizziness postural: 1
  TEAE: Dry mouth: 1
  TEAE: Dyspepsia: 1
  TEAE: Feeling abnormal: 1
  TEAE: Flatulence: 1
  TEAE: Frequent bowel movements: 1
  TEAE: Headache: 2
  TEAE: Hypertension: 1
  TEAE: Hyperthyroidism: 1
  TEAE: Myalgia: 1
  TEAE: Nausea: 1
  TEAE: Nipple pain: 1
  TEAE: Orthostatic hypotension: 1
  TEAE: Sensory disturbance: 1
  TEAE: Skin abrasion: 1
  TEAE: Somnolence: 4
  TEAE: T-wave inversion: 1
  Total number of TEAEs: 24
Subjects with TRD; vs placebo
  BPRS+ and CADSS scores: comparable as between the treatment groups
Healthy volunteers; all doses Total, N = 36
  Number of subjects with ≥1 TEAE: 13 (36.1) n (%)
  TEAE: Abdominal pain: 1 n (%)
  TEAE: Abdominal pain lower: 1 n (%)
  TEAE: Blood creatine phosphokinase increased: 1 n (%)
  TEAE: Dermatitis contact: 3 n (%)
  TEAE: Diarrhea: 1 n (%)
  TEAE: Dizziness: 4 n (%)
  TEAE: Dry mouth: 1 n (%)
  TEAE: Headache: 2 n (%)
  TEAE: Hot flush: 1 n (%)
  TEAE: Lipase increased: 1 n (%)
  TEAE: Nausea: 3 n (%)
  TEAE: Presyncope: 1 n (%)
  TEAE: Somnolence: 1 n (%)
  TEAE: Vomiting: 1 n (%)
  Total number of TEAEs: 22 n (%)
Healthy volunteers; single oral 150 mg, N = 6
  Number of subjects with ≥1 TEAE: 2 (33.3) n (%)
  TEAE: Abdominal pain lower: 1 n (%)
  TEAE: Dizziness: 1 n (%)
  Total number of TEAEs: 3 n (%)
Healthy volunteers; single oral 300 mg, N = 6
  Number of subjects with ≥1 TEAE: 2 (33.3) n (%)
  TEAE: Blood creatine phosphokinase increased: 1 n (%)
  TEAE: Lipase increased: 1 n (%)
  Total number of TEAEs: 2 n (%)
Healthy volunteers; single oral 600 mg, N = 6
  Number of subjects with ≥1 TEAE: 1 (16.7) n (%)
  TEAE: Dizziness: 1 n (%)
  TEAE: Presyncope: 1 n (%)
  Total number of TEAEs: 1 n (%)
Healthy volunteers; single oral 1000 mg, N = 6
  Number of subjects with ≥1 TEAE: 1 (16.7) n (%)
  TEAE: Dizziness: 1 n (%)
  Total number of TEAEs: 1 n (%)
Healthy volunteers; single oral 1600 mg, N = 6
  Number of subjects with ≥1 TEAE: 4 (66.7) n (%)
  TEAE: Abdominal pain: 1 n (%)
  TEAE: Dermatitis contact: 2 n (%)
  TEAE: Diarrhea: 1 n (%)
  TEAE: Dizziness: 2 n (%)
  TEAE: Dry mouth: 1 n (%)
  TEAE: Headache: 1 n (%)
  TEAE: Nausea: 1 n (%)
  TEAE: Somnolence: 1 n (%)
  Total number of TEAEs: 10 n (%)
Healthy volunteers; single oral 2400 mg, N = 6
  Number of subjects with ≥1 TEAE: 3 (50.0) n (%)
  TEAE: Dermatitis contact: 1 n (%)
  TEAE: Headache: 1 n (%)
  TEAE: Nausea: 2 n (%)
  TEAE: Vomiting: 1 n (%)
  Total number of TEAEs: 5 n (%)
Healthy volunteers; single oral doses 150-2400 mg
  Vitals, labs, and ECG findings: unremarkable
  maximally tolerated dose: not reached
  safety and tolerability: well tolerated, with no serious adverse events, and no discontinuations due to adverse events
  severity of adverse events: mild
Healthy volunteers; single oral doses 150-2400 mg, listed as compound A
  safety and tolerability: generally safe and well tolerated
Healthy volunteers; single oral doses 150-2400 mg, vs placebo
  BPRS+ and CADSS scores: comparable as between the treatment groups
